Measurements from patent publication US6335447B1, “Quinolonecarboxylic acid derivatives or salts thereof” (Toyama Chemical Co., Ltd., priority 1998, dated 2002).
Converted amounts (≈) assume the structure as drawn.

Key:
[1] = test system: Staphylococcus aureus (S. aureus F-1924); experiment: MIC against Staphylococcus aureus, agar dilution; format: cell-based; settings: Mueller Hinton agar, 37° C., 20 hours, read-out: MIC (lowest concentration which inhibited visible growth of the cells)
Description: According to the standard method of Japan Chemotherapy Society [CHEMOTHERAPY, Vol. 29, No. 1, p. 76-79 (1981)], Staphylococcus aureus (S. aureus F-1924) was cultivated in Mueller Hinton broth [manufactured by Difco] at 37° C. for 20 hours and the cell density was adjusted to 10^6 cells/plate (10^8 cells/ml). A loopful of the bacterial suspension was inoculated on Mueller Hinton agar medium [manufactured by Difco] and incubated at 37° C. for 20 hours. Whether or not the growth of cells occurred was observed and MIC (μg/ml) was defined as the lowest concentration which inhibited visible growth of the cells.

ddy male mice [2] = experiment: Micronucleus test; format: in vivo; settings: intraperitoneally at 500 mg/Kg
Description: According to the description in Dokusei Shiken Koza 12 (Chijinshokan, 1991), pages 147-153, micronucleus test was carried out using ddy male mice. As a result, the compounds (a), (c), (d) and (g) were negative when administered intraperitoneally at 500 mg/Kg.

ddy male mice [3] = experiment: Acute toxicity; format: in vivo; settings: three ddy male mice; intraperitoneally 500 mg/Kg
Description: Three ddy male mice were intraperitoneally administered with 500 mg/Kg of (a), (b), (d) or (g).

SMILES	MIC [1] [µg/mL]	Micronucleus test result (ddy male mice [2])	Acute toxicity (death of animals) (ddy male mice [3])
Cc1cc(-c2cc(N)c3c(=O)c(C(=O)O)cn(C4CC4)c3c2C)cnc1C [j, 5-Amino-1-cyclopropyl-7-(5,6-dimethyl-3-pyridyl)-8-methyl-4-oxo-1,4-dihydro-3-quinolinecarboxylic acid]	0.39 (≈ 1.07 µM)		
Cc1cc(-c2cc(C)c3c(=O)c(C(=O)O)cn(C4CC4)c3c2C)cc(C)n1 [i, 1-Cyclopropyl-7-(2,6-dimethyl-4-pyridyl)-5,8-dimethyl-4-oxo-1,4-dihydro-3-quinolinecarboxylic acid]	0.2 (≈ 0.552 µM)		
Cc1cc(-c2ccc3c(=O)c(C(=O)O)cn(C4CC4)c3c2C)cnc1N [g, 7-(6-Amino-5-methyl-3-pyridyl)-1-cyclopropyl-8-methyl-4-oxo-1,4-dihydro-3-quinolinecarboxylic acid]	0.1 (≈ 0.286 µM)	negative	In no case, the animals were dead
Cc1cc(-c2ccc3c(=O)c(C(=O)O)cn(C4CC4)c3c2C)cc(CO)n1 [b, 1-Cyclopropyl-7-(2-hydroxymethyl-6-methyl-4-pyridyl)-8-methyl-4-oxo-1,4-dihydro-3-quinolinecarboxylic acid]	0.39 (≈ 1.07 µM)		In no case, the animals were dead
Cc1cc(-c2ccc3c(=O)c(C(=O)O)cn(C4CC4)c3c2OC(F)F)cnc1N [e, 7-(6-Amino-5-methyl-3-pyridyl)-1-cyclopropyl-8-(difluoromethoxy)-4-oxo-1,4-dihydro-3-quinolinecarboxylic acid]	0.78 (≈ 1.94 µM)		
CNc1ncc(-c2ccc3c(=O)c(C(=O)O)cn(C4CC4)c3c2C)cc1C [d, 1-Cyclopropyl-8-methyl-7-[5-methyl-6-(methylamino)-3-pyridyl]-4-oxo-1,4-dihydro-3-quinolinecarboxylic acid]	0.2 (≈ 0.55 µM)	negative	In no case, the animals were dead
Cc1cc(-c2ccc3c(=O)c(C(=O)O)cn(C4CC4)c3c2C)cc(C)n1 [a, 1-Cyclopropyl-7-(2,6-dimethyl-4-pyridyl)-8-methyl-4-oxo-1,4-dihydro-3-quinolinecarboxylic acid]	0.2 (≈ 0.574 µM)	negative	In no case, the animals were dead

Continued, in another order:

MIC [1] [µg/mL]	SMILES	Micronucleus test result (ddy male mice [2])	Acute toxicity (death of animals) (ddy male mice [3])
1.56 (≈ 4.33 µM)	CC1CCc2c(N3CCC(O)CC3)c(F)cc3c(=O)c(C(=O)O)cn1c23 (racemic) [k, (±)-9-Fluoro-6,7-dihydro-8-(4-hydroxy-1-piperidinyl)-5-methyl-1-oxo-1-1H,5H-benzo[i,j]quinolizine-2-carboxylic acid, reference compound]		
0.1 (≈ 0.298 µM)	Cc1c(-c2ccc(N)nc2)ccc2c(=O)c(C(=O)O)cn(C3CC3)c12 [h, 7-(6-Amino-3-pyridyl)-1-cyclopropyl-8-methyl-4-oxo-1,4-dihydro-3-quinolinecarboxylic acid]		
0.39 (≈ 1.07 µM)	COc1c(-c2cnc(N)c(C)c2)ccc2c(=O)c(C(=O)O)cn(C3CC3)c12 [f, 7-(6-Amino-5-methyl-3-pyridyl)-1-cyclopropyl-8-methoxy-4-oxo-1,4-dihydro-3-quinolinecarboxylic acid]		
0.39 (≈ 1.17 µM)	Cc1ccc(-c2ccc3c(=O)c(C(=O)O)cn(C4CC4)c3c2C)cn1 [c, 1-Cyclopropyl-7-(6-methyl-3-pyridyl)-8-methyl-4-oxo-1,4-dihydro-3-quinolinecarboxylic acid]	negative	
